In US20250186405A1, “Compound For Use In Treating Narcolepsy” (Alkermes, Inc., priority 2023, published 2025):

Tested on: subjects with idiopathic hypersomnia (IH)
Assay: Part 6 POC IH: treatment-emergent adverse events, single doses, crossover
[1] = Total (any Compound A dose), N = 8

Procedure: Part 6 consisted of a 4-way, 4-period crossover study design in approximately 8 subjects (2 subjects per sequence; minimum of 4 subjects with 1 subject per sequence). […] Treatments were administered under fasted state.
Subjects were randomized to 1 of 4 sequences. […] No food was given for at least 3 hours after dose administration (i.e., fast can be broken after the 3-hour PK time point is collected). Water was allowed ad libitum except for 1 hour before and 1 hour after study drug administration. Safety assessments including AEs, safety ECGs, vital signs, and clinical laboratory tests were conducted, and plasma PK samples were collected.
Adverse events (AEs) and serious adverse events (SAEs) were monitored continuously until the completion of the study.
Eight subjects with IH were dosed in Part 6 (POC in IH) in a randomized 4-sequence 4-period cross-over design.

**Q.** What does the source list for `CS(=O)(=O)N[C@H]1CCCN2C(=O)COc3ccccc3C3CCC(CC3)OCC12` (stereo partly drawn) [Compound A, N-[(4S,4aR,7α,10α)-1,2,3,4,4a,5,7,8,9,10,16,17-dodecahydro-17-oxo-7,10-ethanopyrido[1,2-d][1,7,4]benzodioxaazacyclotridecin-4-yl]methanesulfonamide]?
**A.** Any SAEs (25 mg single dose, N = 8): 0 n (%); Any TEAE (25 mg single dose, N = 8): 7 (87.5) n (%); Death (25 mg single dose, N = 8): 0 n (%); Drug Related TEAE by Preferred Term: Cold sweat (25 mg single dose, N = 8): 1 (12.5) n (%); Drug Related TEAE by Preferred Term: Dizziness (25 mg single dose, N = 8): 2 (25.0) n (%); Drug Related TEAE by Preferred Term: Dysuria (25 mg single dose, N = 8): 1 (12.5) n (%); Drug Related TEAE by Preferred Term: Feeling jittery (25 mg single dose, N = 8): 1 (12.5) n (%); Drug Related TEAE by Preferred Term: Insomnia (25 mg single dose, N = 8): 2 (25.0) n (%); Drug Related TEAE by Preferred Term: Micturition urgency (25 mg single dose, N = 8): 1 (12.5) n (%); Drug Related TEAE by Preferred Term: Middle insomnia (25 mg single dose, N = 8): 1 (12.5) n (%); Drug Related TEAE by Preferred Term: Palpitations (25 mg single dose, N = 8): 1 (12.5) n (%); Drug Related TEAE by Preferred Term: Pollakiuria (25 mg single dose, N = 8): 4 (50.0) n (%); Drug Related TEAE by Preferred Term: Supraventricular extrasystoles (25 mg single dose, N = 8): 1 (12.5) n (%); Drug Related TEAE by Preferred Term: Tachycardia (25 mg single dose, N = 8): 1 (12.5) n (%); Drug Related TEAE by Preferred Term: Visual impairment (25 mg single dose, N = 8): 1 (12.5) n (%); Subjects with at least one TEAE (25 mg single dose, N = 8): 7 (87.5) n (%); Subjects with at least one treatment-related TEAE (25 mg single dose, N = 8): 7 (87.5) n (%); TEAE by Highest Relationship: Not Related (25 mg single dose, N = 8): 0 n (%); TEAE by Highest Relationship: Related (25 mg single dose, N = 8): 7 (87.5) n (%); TEAE by Highest Severity: Mild (25 mg single dose, N = 8): 6 (75.0) n (%); TEAE by Highest Severity: Moderate (25 mg single dose, N = 8): 1 (12.5) n (%); TEAE by Highest Severity: Severe (25 mg single dose, N = 8): 0 n (%); TEAE by Preferred Term: Blood creatine phosphokinase increased (25 mg single dose, N = 8): 0 n (%); TEAE by Preferred Term: Blood creatinine increased (25 mg single dose, N = 8): 0 n (%); TEAE by Preferred Term: Cold sweat (25 mg single dose, N = 8): 1 (12.5) n (%); TEAE by Preferred Term: Dermatitis contact (25 mg single dose, N = 8): 0 n (%); TEAE by Preferred Term: Dizziness (25 mg single dose, N = 8): 2 (25.0) n (%); TEAE by Preferred Term: Dysuria (25 mg single dose, N = 8): 1 (12.5) n (%); TEAE by Preferred Term: Epistaxis (25 mg single dose, N = 8): 1 (12.5) n (%); TEAE by Preferred Term: Feeling jittery (25 mg single dose, N = 8): 1 (12.5) n (%); TEAE by Preferred Term: Headache (25 mg single dose, N = 8): 1 (12.5) n (%); TEAE by Preferred Term: Insomnia (25 mg single dose, N = 8): 2 (25.0) n (%); TEAE by Preferred Term: Micturition urgency (25 mg single dose, N = 8): 1 (12.5) n (%); TEAE by Preferred Term: Middle insomnia (25 mg single dose, N = 8): 1 (12.5) n (%); TEAE by Preferred Term: Nausea (25 mg single dose, N = 8): 0 n (%); TEAE by Preferred Term: Neck pain (25 mg single dose, N = 8): 0 n (%); TEAE by Preferred Term: Palpitations (25 mg single dose, N = 8): 1 (12.5) n (%); TEAE by Preferred Term: Phlebitis (25 mg single dose, N = 8): 0 n (%); TEAE by Preferred Term: Pollakiuria (25 mg single dose, N = 8): 4 (50.0) n (%); TEAE by Preferred Term: Presyncope (25 mg single dose, N = 8): 0 n (%); TEAE by Preferred Term: Skin irritation (25 mg single dose, N = 8): 0 n (%); TEAE by Preferred Term: Steatorrhoea (25 mg single dose, N = 8): 0 n (%); TEAE by Preferred Term: Supraventricular extrasystoles (25 mg single dose, N = 8): 1 (12.5) n (%); TEAE by Preferred Term: Tachycardia (25 mg single dose, N = 8): 1 (12.5) n (%); TEAE by Preferred Term: Urinary tract infection (25 mg single dose, N = 8): 0 n (%); TEAE by Preferred Term: Vessel puncture site bruise (25 mg single dose, N = 8): 0 n (%); TEAE by Preferred Term: Vessel puncture site pain (25 mg single dose, N = 8): 1 (12.5) n (%); TEAE by Preferred Term: Visual impairment (25 mg single dose, N = 8): 1 (12.5) n (%); TEAE by Preferred Term: Vomiting (25 mg single dose, N = 8): 0 n (%); Tolerability (IH, 5, 12 and 25 mg): well tolerated; Subjects with at least one TEAE (IH, N = 8, all periods): 100%; AE Leading to Study Drug Discontinuation [1]: 0 n (%); Any SAEs [1]: 0 n (%); Any TEAE [1]: 8 n (%); Death [1]: 0 n (%); Drug Related TEAE by Preferred Term: Cold sweat [1]: 1 (12.5) n (%); Drug Related TEAE by Preferred Term: Dizziness [1]: 2 (25.0) n (%); Drug Related TEAE by Preferred Term: Dysuria [1]: 1 (12.5) n (%); Drug Related TEAE by Preferred Term: Feeling jittery [1]: 1 (12.5) n (%); Drug Related TEAE by Preferred Term: Insomnia [1]: 2 (25.0) n (%); Drug Related TEAE by Preferred Term: Micturition urgency [1]: 1 (12.5) n (%); Drug Related TEAE by Preferred Term: Middle insomnia [1]: 2 (25.0) n (%); Drug Related TEAE by Preferred Term: Palpitations [1]: 1 (12.5) n (%); Drug Related TEAE by Preferred Term: Pollakiuria [1]: 5 (62.5) n (%); Drug Related TEAE by Preferred Term: Supraventricular extrasystoles [1]: 1 (12.5) n (%); Drug Related TEAE by Preferred Term: Tachycardia [1]: 1 (12.5) n (%); Drug Related TEAE by Preferred Term: Visual impairment [1]: 1 (12.5) n (%); Subjects with at least one TEAE [1]: 8 n (%); Subjects with at least one treatment-related TEAE [1]: 8 (100) n (%); TEAE by Highest Relationship: Not Related [1]: 0 n (%); TEAE by Highest Relationship: Related [1]: 8 n (%); TEAE by Highest Severity: Mild [1]: 7 n (%); TEAE by Highest Severity: Moderate [1]: 1 n (%); TEAE by Highest Severity: Severe [1]: 0 n (%); TEAE by Preferred Term: Blood creatine phosphokinase increased [1]: 1 n (%); TEAE by Preferred Term: Blood creatinine increased [1]: 1 n (%); TEAE by Preferred Term: Cold sweat [1]: 1 n (%); TEAE by Preferred Term: Dermatitis contact [1]: 0 n (%); TEAE by Preferred Term: Dizziness [1]: 4 n (%); TEAE by Preferred Term: Dysuria [1]: 1 n (%); TEAE by Preferred Term: Epistaxis [1]: 1 n (%); TEAE by Preferred Term: Feeling jittery [1]: 1 n (%); TEAE by Preferred Term: Headache [1]: 3 n (%); TEAE by Preferred Term: Insomnia [1]: 2 n (%); TEAE by Preferred Term: Micturition urgency [1]: 1 n (%); TEAE by Preferred Term: Middle insomnia [1]: 2 n (%); TEAE by Preferred Term: Nausea [1]: 1 n (%); TEAE by Preferred Term: Neck pain [1]: 1 n (%); TEAE by Preferred Term: Palpitations [1]: 1 n (%); TEAE by Preferred Term: Phlebitis [1]: 1 n (%); TEAE by Preferred Term: Pollakiuria [1]: 5 n (%); TEAE by Preferred Term: Presyncope [1]: 1 n (%); TEAE by Preferred Term: Skin irritation [1]: 1 n (%); TEAE by Preferred Term: Steatorrhoea [1]: 1 n (%); TEAE by Preferred Term: Supraventricular extrasystoles [1]: 1 n (%); TEAE by Preferred Term: Tachycardia [1]: 1 n (%); TEAE by Preferred Term: Urinary tract infection [1]: 1 n (%); TEAE by Preferred Term: Vessel puncture site bruise [1]: 2 n (%); TEAE by Preferred Term: Vessel puncture site pain [1]: 1 n (%); TEAE by Preferred Term: Visual impairment [1]: 1 n (%); TEAE by Preferred Term: Vomiting [1]: 0 n (%)
